{
  "source": "patent US7566739B2",
  "about": "“Substituted N-sulfonylaminophenylethyl-2-phenoxyacetamide compounds as VR1 receptor antagonists” (Pfizer Inc., priority 2005, dated 2009)",
  "key": {"human VR1": {"target": "human VR1 (Homo sapiens, UniProt Q8NER1)", "sequence (Q8NER1 whole entry)": "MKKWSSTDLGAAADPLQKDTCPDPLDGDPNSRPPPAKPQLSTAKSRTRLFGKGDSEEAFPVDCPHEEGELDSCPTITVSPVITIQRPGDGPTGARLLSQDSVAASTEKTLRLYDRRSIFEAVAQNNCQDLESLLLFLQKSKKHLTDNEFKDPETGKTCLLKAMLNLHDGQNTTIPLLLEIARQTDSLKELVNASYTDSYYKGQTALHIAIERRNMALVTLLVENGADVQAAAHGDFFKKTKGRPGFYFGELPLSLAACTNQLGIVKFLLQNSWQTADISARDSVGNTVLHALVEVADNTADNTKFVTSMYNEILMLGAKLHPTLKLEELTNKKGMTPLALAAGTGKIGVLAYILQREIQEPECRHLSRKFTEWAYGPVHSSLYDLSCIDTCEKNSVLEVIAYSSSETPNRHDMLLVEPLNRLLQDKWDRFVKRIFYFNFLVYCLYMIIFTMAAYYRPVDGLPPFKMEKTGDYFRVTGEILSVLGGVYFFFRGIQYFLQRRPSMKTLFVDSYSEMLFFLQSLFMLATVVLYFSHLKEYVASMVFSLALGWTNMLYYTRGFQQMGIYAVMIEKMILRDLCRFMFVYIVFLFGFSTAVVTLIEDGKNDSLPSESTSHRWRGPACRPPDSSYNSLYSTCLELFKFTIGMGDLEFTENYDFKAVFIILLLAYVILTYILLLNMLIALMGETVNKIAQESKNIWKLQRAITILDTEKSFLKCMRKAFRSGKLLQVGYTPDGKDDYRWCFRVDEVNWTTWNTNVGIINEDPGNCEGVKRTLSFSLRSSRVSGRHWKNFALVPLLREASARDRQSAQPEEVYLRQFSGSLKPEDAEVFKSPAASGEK", "assay": "Human VR1 antagonist assay (Ca2+ imaging, capsaicin stimulation)", "assay_type": "cell-based", "conditions": "human VR1 expressing cells; concentration reducing capsaicin-evoked Ca2+ influx by 50%; capsaicin 300 nM; read-out: hVR1 IC50", "source_text": "VR1 antagonistic activity can be determined by the Ca^2+ imaging assay using human VR1 highly expressing cells. The cells that highly express human VR1 receptors are obtainable from several different conventional methods. The one standard method is cloning from human Dorsal Root Ganglion (DRG) or kidney according to the methods such as described in the journal article; Nature, 389, pp 816-824, 1997. Alternatively VR1 receptors highly expressing human keratinocytes are also known and published in the journal article (Biochemical and Biophysical Research Communications, 291, pp 124-129, 2002). […] Such a genetic modification method was described in detail; Nat. Biotechnol., 19, pp 440-445, 2001. The cells that express human VR1 receptors were maintained in culture flask at 37° C. in an environment containing 5% CO2 until use in the assay. The intracellular Ca^2+ imaging assay to determine VR1 antagonistic activities was done according to the following procedures. The culture medium was removed from the flask and fura-2/AM fluorescent calcium indicator was added to the flask at a concentration of 5 μM in the medium. The flask was placed in CO2 incubator and incubated for 1 hour. Then the cells expressing the human VR1 receptors were detached from the flask follow by washing with phosphate buffer saline, PBS(−) and re-suspended in assay buffer. The 80 μl of aliquot of cell suspension (3.75×10^5 cells/ml) was added to the assay plate and the cells were spun down by centrifuge (950 rpm, 20° C., 3 minutes). The capsaicin-induced changes in the intracellular calcium concentration were monitored using FDSS 6000 (Hamamatsu Photonics, Japan), a fluorometric imaging system. The cell suspension in Krebs-Ringer HEPES (KRH) buffer (115 mM NaCl, 5.4 mM KCl, 1 mM MgSO4, 1.8 mM CaCl2, 11 mM D-Glucose, 25 mM HEPES, 0.96 mM Na2HPO4, pH 7.3) was pre-incubated with varying concentrations of the test compounds or KRH buffer (buffer control) for 15 minutes at room temperature under dark conditions. Then the capsaicin solution, which gives 300 nM in assay mixture, was automatically added to the assay plate by the FDSS 6000. The monitoring of the changes in the fluorescence signals (λex=340 nm/380 nm, λem=510-520 nm) was initiated at 1 minute prior to the addition of capsaicin solution or acidic buffer and continued for 5 minute."}, "[1]": {"assay": "Half-life in human liver microsomes (HLM)", "assay_type": "in vitro ADME", "conditions": "human liver microsomes (HLM, HL101), 1 μM compound, 0.78 mg/mL HLM, pH 7.4, 37° C., NADPH", "method": "Test compounds (1 μM) were incubated with 3.3 mM MgCl2 and 0.78 mg/mL HLM (HL101) in 100 mM potassium phosphate buffer (pH 7.4) at 37° C. on the 96-deep well plate. The reaction mixture was split into two groups, a non-P450 and a P450 group. NADPH was only added to the reaction mixture of the P450 group. An aliquot of samples of P450 group was collected at 0, 10, 30, and 60 minute time points, where the 0 minute time point indicated the time when NADPH was added into the reaction mixture of P450 group. An aliquot of samples of non-P450 group was collected at −10 and 65 minute time points. Collected aliquots were extracted with an acetonitrile solution containing an internal standard. The precipitated protein was spun down in a centrifuge (2000 rpm, 15 min). The compound concentration in supernatant was measured by LC/MS/MS system.\nThe half-life value was obtained by plotting the natural logarithm of the peak area ratio of compounds/internal standard versus time. The slope of the line of best fit through the points yields the rate of metabolism (k). This was converted to a half-life value using following equations: Half-life=ln 2/k Mono-Iodoacetate (MIA)-Induced OA Model"}},
  "data": [
    {"smiles": "Cc1cc([C@@H](C)NC(=O)COc2cc(F)c(C(C)(C)C)c(F)c2)ccc1NS(C)(=O)=O", "note": "[Example 1, 2-(4-TERT-BUTYL-3,5-DIFLUOROPHENOXY)-N-((1R)-1-{3-METHYL-4-[(METHYLSULFONYL)AMINO]PHENYL}ETHYL)ACETAMIDE]", "values": [
      {"measurement": "IC50", "setting": "human VR1", "result": 3.13, "unit": "nM"},
      {"measurement": "half-life at 1 μM", "setting": "[1]", "result": 31, "unit": "min"}
    ]},
    {"smiles": "C[C@@H](NC(=O)COc1cc(F)c(C(C)(C)C)c(F)c1)c1ccc(NS(C)(=O)=O)c(F)c1", "note": "[Example 2, 2-(4-TERT-BUTYL-3,5-DIFLUOROPHENOXY)-N-((1R)-1-{3-FLUORO-4-[(METHYLSULFONYL)AMINO]PHENYL}ETHYL)ACETAMIDE]", "values": [
      {"measurement": "IC50", "setting": "human VR1", "result": 31.3, "unit": "nM"},
      {"measurement": "half-life at 1 μM", "setting": "[1]", "result": 12, "unit": "min"}
    ]},
    {"smiles": "C[C@@H](NC(=O)COc1cc(F)c(C(C)(C)C)c(F)c1)c1ccc(NS(C)(=O)=O)cc1", "note": "[Example 3, 2-(4-TERT-BUTYL-3,5-DIFLUOROPHENOXY)-N-((1R)-1-{4-[(METHYLSULFONYL)AMINO]PHENYL}ETHYL)ACETAMIDE]", "values": [
      {"measurement": "IC50", "setting": "human VR1", "result": 34.4, "unit": "nM"},
      {"measurement": "half-life at 1 μM", "setting": "[1]", "result": 48, "unit": "min"}
    ]},
    {"smiles": "C[C@@H](NC(=O)COc1cc(F)c(C(C)(C)C)c(F)c1)c1ccc(NS(C)(=O)=O)c(CO)c1", "note": "[Example 4, 2-(4-TERT-BUTYL-3,5-DIFLUOROPHENOXY)-N-((1R)-1-{3-(HYDROXYMETHYL)-4-[(METHYLSULFONYL)AMINO]PHENYL}ETHYL)ACETOAMIDE]", "values": [
      {"measurement": "IC50", "setting": "human VR1", "result": 8.7, "unit": "nM"},
      {"measurement": "half-life at 1 μM", "setting": "[1]", "result": 5.8, "unit": "min"}
    ]},
    {"smiles": "Cc1cc([C@@H](C)NC(=O)COc2cc(F)c(C(C)(C)C(F)(F)F)c(F)c2)ccc1NS(C)(=O)=O", "note": "[Example 5, 2-[3,5-DIFLUORO-4-(2,2,2-TRIFLUORO-1,1-DIMETHYLETHYL)PHENOXY]-N-((1R)-1-{3-METHYL-4-[(METHYLSULFONYL)AMINO]PHENYL}ETHYL)ACETAMIDE]", "values": [
      {"measurement": "IC50", "setting": "human VR1", "result": 7.55, "unit": "nM"},
      {"measurement": "half-life at 1 μM", "setting": "[1]", "result": 13, "unit": "min"}
    ]}
  ]
}
